Columns and labels:
[1] = system: ERK and p38 in colon carcinoma cells; parameters: method as in PMID 21170925; conditions: cited from earlier work
[2] = Pharmacokinetics of decursin in plasma after oral administration of RAGE; type: in vivo, SD rats
Procedure: Quantification of decursin was performed using an Accela LC system (Thermo Fisher Scientific; MA, USA) equipped with an autosampler, degasser, and quaternary solvent pump. Decursin and IS were separated on a Hypersil GOLD C18 column (2.1 mm × 100 mm, 1.9 μm; Thermo Fisher Scientific, MA, USA) at 35℃. The flow rate was set at 300 μL/min with an injection volume of 5 μL. The mobile phase consisted of water (containing 0.1% formic acid, A) and acetonitrile (B) and the gradient elution applied was as follows: 30–60% (B) for 0–4 min, 60% (B) for 0.5 min, and then re-equilibrated to 30% (B) until the end of the analysis. An LCQ Fleet ion-trap mass spectrometer (Thermo Fisher Scientific; MA, USA) was used to detect compounds in the eluent using the electrospray ionization source in the positive-ion mode. MS conditions were as follows: sheath gas (nitrogen), 50 arbitrary units; auxiliary gas (nitrogen), 20 arbitrary units; spray voltage, 5.0 kV; capillary temperature, 300℃; and capillary voltage, 30.0 V. Quantification of the compound was performed in the selective ion monitoring mode at 329 m/z [M+H]^+ for decursin and 415 m/z [M+H]^+ for the IS. Data was processed using Excalibur (v. 2.1.0; Thermo Fisher Scientific, CA, USA). Accurately weighed decursin and IS were dissolved in methanol at a concentration of 100 μg/mL, and the solution was diluted with methanol to prepare working solutions for the construction of the calibration curve. Calibration standards were prepared using 150 μL of blank rat plasma spiked with 10 μL of working solutions and 10 μL of IS solution, which was extracted using ethyl acetate. Plasma samples were prepared using a liquid–liquid extraction method. An aliquot of 150 μL plasma sample was spiked with 10 μL of IS solution and 10 μL of methanol, and 800 μL of ethyl acetate was added. Extraction of decursin and IS was performed by vortex mixing for 2 min at 25℃, followed by centrifugation at 704 × g for 10 min at 20℃. The upper layer (ethyl acetate) was then transferred to a clean 1.5 mL polypropylene tube and evaporated using a nitrogen gas blowing concentrator (MGS–2200; EYELA, Miyagi, Japan). The residue obtained after evaporation was reconstituted in 100 μL of methanol, vortex mixed for 2 min, and centrifuged at 704 × g for 10 min at 20℃. The supernatant was transferred to a glass vial and a 5 μL aliquot was injected into the UPLC–MS/MS system. […] Blood samples ([…]) were collected from a jugular vein in heparinized tubes before the administration, and 0.17, 0.5, 1, 2, 4, 6, 8, 12, 24, or 48 h after intragastric administration. Collected blood samples were immediately centrifuged at 704 × g for 10 min, and 150 μL aliquots of supernatant plasma were transferred to clean tubes and stored at -20 °C until analysis. The pharmacokinetic parameters of decursin were calculated using plasma concentration of decursin versus time data using PKSolver (a free add-in program for Microsoft Excel).

[3] = oral RAGE 100 mg/rat, mean ± SD, n = 6

| half-life ([2]; SD, rat, after oral administration of RAGE, as restated in the discussion) [h] | AUC(0-t) ([2]; oral RAGE 100 mg/rat, 0 to 48 h, mean ± SD, n = 6) [ng·h/mL] | MRT last ([2]; oral RAGE 100 mg/rat, 0 to 48 h, mean ± SD, n = 6, read-out: MRT0-t) [h] | concentration at 48 h ([2]; oral RAGE 100 mg/rat, last measured concentration, mean ± SD, n = 6, read-out: Clast) [ng/mL] | AUC(0-inf) [2, 3] [ng·h/mL] | Cmax [2, 3] [ng/mL] | Tmax [2, 3] [h] | half-life [2, 3] [h] | MRT inf ([2]; oral RAGE 100 mg/rat, mean ± SD, n = 6, read-out: MRT0-∞) [h] | Structure (SMILES) | activities of ERK and p38 [1] |
| --- | --- | --- | --- | --- | --- | --- | --- | --- | --- | --- |
| 8.28 | 1190 ± 324 | 5.43 ± 0.581 | 2.62 ± 0.665 | 1220 ± 326 | 408 ± 85.7 | 1.75 ± 1.25 | 8.28 ± 0.538 | 6.9 ± 0.954 | CC(C)=CC(=O)O[C@H]1Cc2cc3ccc(=O)oc3cc2OC1(C)C [decursin] | inhibited |
| – | – | – | – | – | – | – | – | – | CC1(C)Oc2cc3oc(=O)ccc3cc2C[C@@H]1O [decursinol] | inhibited |

Source: paper PMC7509924, “Neuroprotective effect of Angelica gigas root in a mouse model of ischemic brain injury through MAPK signaling pathway regulation” (Chinese Medicine, 2020)
